Four compounds from BindingDB's records for doi:10.7270/Q20863PV (University of Pittsburgh, 2006) can be followed below.

The target in this assay is T1, Dual specificity protein phosphatase 1 (Homo sapiens, UniProt P28562).
T1 sequence (P28562 whole entry): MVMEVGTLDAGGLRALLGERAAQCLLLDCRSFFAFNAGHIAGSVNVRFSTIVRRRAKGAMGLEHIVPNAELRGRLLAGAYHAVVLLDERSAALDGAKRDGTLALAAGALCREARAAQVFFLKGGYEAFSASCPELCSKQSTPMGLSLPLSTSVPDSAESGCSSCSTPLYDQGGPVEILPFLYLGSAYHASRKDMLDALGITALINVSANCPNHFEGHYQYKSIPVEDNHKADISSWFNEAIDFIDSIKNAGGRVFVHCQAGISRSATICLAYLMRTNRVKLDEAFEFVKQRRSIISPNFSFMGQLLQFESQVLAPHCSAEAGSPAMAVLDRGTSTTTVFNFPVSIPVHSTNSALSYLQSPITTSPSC
Briefly: MKP-1 phosphatase inhibition under DTT, dose response, biochemical, DTT added, probe assessment (AID 558).
Compound `CCCCCC#CCC#CCC#CCC#CCCCC(=O)O` displayed an IC50 of 13.1 µM. This lies in the double-digit micromolar range.
In turn, `Cc1nc2c(C(=O)NCCC3=CCCCC3)c[nH]n2c(=O)c1Cl` [6-chloro-N-(2-cyclohex-1-en-1-ylethyl)-7-hydroxy-5-methylpyrazolo[1,5-a]pyrimidine-3-carboxamide] showed an IC50 of 49.9 µM.
Then `CC(C)Sc1nc2sc3c(c2c2nnc(SCC(=O)NCc4ccco4)n12)CCCC3` [MLS000082957], with 22.7 µM.
Take `CCCCCNC(=O)c1ccc2c(=O)[nH]c3c(C(=O)NCC4CCCO4)sc(=S)n3c2c1` (centres undefined) [5-oxo-N3-(2-oxolanylmethyl)-N8-pentyl-1-sulfanylidene-4H-thiazolo[3,4-a]quinazoline-3,8-dicarboxamide]: half-maximal inhibition (IC50) was put at 36.7 µM.

By IC50 is commonly meant the concentration that inhibits the measured activity by half. A lower IC50 goes with greater potency.
